Data on 26 compounds can be found in patent publication US11111243B2, “Azaindole compounds as histone methyltransferase inhibitors” (GLOBAL BLOOD THERAPEUTICS, INC., priority 2017, dated 2021).

Structures can show the parent of a compound that is named as a salt.

The target of this assay is T1, G9a (Homo sapiens, UniProt Q96KQ7).
T1 sequence (Q96KQ7 1-1210): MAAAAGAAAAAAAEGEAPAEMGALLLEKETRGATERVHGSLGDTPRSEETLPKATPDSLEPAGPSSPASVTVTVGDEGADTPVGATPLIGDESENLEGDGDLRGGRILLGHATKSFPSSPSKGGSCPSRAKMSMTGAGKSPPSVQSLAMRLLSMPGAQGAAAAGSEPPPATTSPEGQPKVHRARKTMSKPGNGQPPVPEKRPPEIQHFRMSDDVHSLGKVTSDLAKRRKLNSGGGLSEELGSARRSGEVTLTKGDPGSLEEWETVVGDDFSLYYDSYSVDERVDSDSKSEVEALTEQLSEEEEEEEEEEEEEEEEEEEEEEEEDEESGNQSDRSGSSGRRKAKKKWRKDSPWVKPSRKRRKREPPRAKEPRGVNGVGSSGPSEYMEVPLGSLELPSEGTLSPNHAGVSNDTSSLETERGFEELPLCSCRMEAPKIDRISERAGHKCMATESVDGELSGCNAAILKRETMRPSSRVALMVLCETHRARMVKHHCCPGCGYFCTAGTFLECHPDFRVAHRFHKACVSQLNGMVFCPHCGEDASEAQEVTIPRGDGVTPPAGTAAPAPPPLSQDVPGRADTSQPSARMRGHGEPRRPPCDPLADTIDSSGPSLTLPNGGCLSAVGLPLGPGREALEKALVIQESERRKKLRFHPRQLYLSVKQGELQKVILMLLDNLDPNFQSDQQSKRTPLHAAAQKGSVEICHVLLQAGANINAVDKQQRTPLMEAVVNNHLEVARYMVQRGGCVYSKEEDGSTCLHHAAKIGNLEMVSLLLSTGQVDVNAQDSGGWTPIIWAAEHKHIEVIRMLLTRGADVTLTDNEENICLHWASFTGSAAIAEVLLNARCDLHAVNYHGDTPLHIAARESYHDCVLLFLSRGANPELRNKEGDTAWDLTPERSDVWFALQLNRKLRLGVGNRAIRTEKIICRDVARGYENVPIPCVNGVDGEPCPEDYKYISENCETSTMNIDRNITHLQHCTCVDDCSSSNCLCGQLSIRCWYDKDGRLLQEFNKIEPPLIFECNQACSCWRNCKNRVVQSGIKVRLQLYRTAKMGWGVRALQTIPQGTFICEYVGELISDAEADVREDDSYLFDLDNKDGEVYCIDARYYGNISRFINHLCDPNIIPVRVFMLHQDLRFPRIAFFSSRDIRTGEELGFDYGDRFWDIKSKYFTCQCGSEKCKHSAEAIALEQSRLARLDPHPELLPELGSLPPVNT
Description: G9a AlphaLISA enzymatic activity assay. The following applies: 0.15 nM G9a, 10 uM S-adenosyl-methionine, 100 nM biotinylated histone 3 peptide (1-21), 1 h room temperature. Format: biochemical. The source says:
The G9a AlphaLISA assay was used to detect the methyl modifications of a biotinylated histone H3 peptide by the compounds. These modifications are done by the histone methyl transferase activity of the G9a enzyme. The assay consists of reading a chemiluminescent signal at 615 nm; this signal is generated by a laser excitation at 680 nm that transfers a reactive singlet oxygen between the donor beads and acceptor beads. Donor beads are streptavidin conjugated and bind to the biotin on the peptide. Acceptor beads are conjugated with an antibody that recognizes the specific G9a methyl mark on the peptide. If there is a methyl mark on the peptide, the acceptor beads will bind to the peptide. Upon binding, the acceptor beads will be in close proximity (<200 nm) of the donor beads and when the donor beads are excited, the transfer of the oxygen can occur and a strong signal will be generated. If there is no methyl mark, the interaction between beads will not occur and signal will be at background levels.
For the assay, the following buffer was used to set up reactions: 50 mM Tris-HCl pH9, 50 mM NaCl, 0.01% Tween-20 and 1 mM DTT (added fresh prior to starting the reactions). The assay is set up by adding a final concentration of 0.15 nM G9a, 10 uM S-adenosyl-methionine and, 100 nM biotinylated histone 3 peptide (1-21). The reaction is incubated at room temperature for 1 h, and subsequently quenched by the addition of the acceptor beads (anti-H3k9me2 AlphaLISA acceptor beads, PerkinElmer #AL117) at a final concentration of 20 ug/mL. The acceptor beads are incubated for 1 h. After 1 h, the donor beads are added at a final concentration of 20 ug/mL (Alpha Streptavidin donor beads, PerkinElmer #6760002). Donor beads are incubated for 0.5 h. Both donor and acceptor beads are resuspended in AlphaLISA 5× Epigenetics Buffer 1 Kit (PerkinElmer #AL008) prior to addition to the reaction. All manipulations and incubations with the donor and acceptor beads are done in subdued light. Signal is detected in an EnVision plate reader in Alpha mode (See ACS Med Chem Lett. 2014 Jan. 2; 5(2):205-9)
Percent inhibition was calculated for each compound dilution and the concentration that produced 50% inhibition was calculated. This value is presented as the IC50.
For `COc1cc2c(cc1OCCCN(C)C)[nH]c1ccnc(C#CC(C)O)c12` (centres unmarked) [Compound 50, 4-{7-[3-(dimethylamino)propoxy]-8-methoxy-5H-pyrido[4,3-b]indol-1-yl}but-3-yn-2-ol hydrochloride], 0.69 µM corresponded to half-maximal inhibition (IC50).
Then `COc1cc2c(cc1OCCCN(C)C)[nH]c1ccnc(C(C)C)c12` [Compound 67, (3-{[8-methoxy-1-(propan-2-yl)-5H-pyrido[4,3-b]indol-7-yl]oxy}propyl)dimethylamine hydrochloride], with 0.0095 µM.
Then `COc1cc2c(cc1OCCCN(C)C)[nH]c1ccncc12` [Compound 88, [3-({8-methoxy-5H-pyrido[4,3-b]indol-7-yl}oxy)propyl]dimethylamine hydrochloride], with 0.012 µM; and `COc1cc2c3cnccc3n(C)c2cc1OCCCN1CCCC1` [Compound 94, 1-[3-({8-methoxy-5-methyl-5H-pyrido[4,3-b]indol-7-yl}oxy)propyl]pyrrolidine hydrochloride], with 0.054 µM; and `COc1cc2c(cc1OCCCN1CCCC1)[nH]c1ccnc(C3CC3)c12` [Compound 43, 1-[3-({1-cyclopropyl-8-methoxy-5H-pyrido[4,3-b]indol-7-yl}oxy)propyl]pyrrolidine], with 0.0013 µM.
`COc1c(OCCCN2CCCC2)ccc2c1[nH]c1cccnc12` [Compound 26, 1-[3-({6-methoxy-5H-pyrido[3,2-b]indol-7-yl}oxy)propyl]pyrrolidine hydrochloride] showed a half-inhibitory concentration (IC50) of 0.25 µM.
In turn, `COc1cc2c(cc1OCCCN1CC[C@@H](F)C1)[nH]c1ccnc(C3CC3)c12` [Compound 62, (3R)-1-[3-({1-cyclopropyl-8-methoxy-5H-pyrido[4,3-b]indol-7-yl}oxy)propyl]-3-fluoropyrrolidine hydrochloride] showed an IC50 of 0.053 µM.
The same measure for `CCc1nccc2[nH]c3cc(OCCCN(C)C)c(OC)cc3c12` [Compound 91, [3-({1-ethyl-8-methoxy-5H-pyrido[4,3-b]indol-7-yl}oxy)propyl]dimethylamine hydrochloride]: 0.0067 µM; for `COc1cc2c(cc1OCCCN1CCCC1)[nH]c1ccnc(CO)c12` [Compound 82, 8-methoxy-7-[3-(pyrrolidin-1-yl)propoxy]-5H-pyrido[4,3-b]indol-1-yl]methanol trifluoroacetate]: 0.0045 µM; for `COc1cc2c(cc1OCCN1CCCC1)[nH]c1ccncc12` [Compound 71, 1-[2-({8-methoxy-5H-pyrido[4,3-b]indol-7-yl}oxy)ethyl]pyrrolidine hydrochloride]: 0.052 µM.
With `COc1cc2c(cc1OCCCN1CCCC1)[nH]c1ccnc(-n3cccn3)c12` [Compound 77, 1-[8-methoxy-7-[3-(pyrrolidin-1-yl)propoxy]-5H-pyrido[4,3-b]indol-1-yl]-1H-pyrazole trifluoroacetate], the half-inhibitory concentration (IC50) amounted to 2.5 µM.
With `COc1cc2c(cc1OCCCN1CCCC1)[nH]c1ccnc(-c3cnc[nH]3)c12` [Compound 84, 1-(1H-imidazol-5-yl)-8-methoxy-7-(3-(pyrrolidin-1-yl)propoxy)-5H-pyrido[4,3-b]indole trifluoroacetate], the IC50 came out at 0.017 µM. Against the preceding compound, the IC50 is about 150-fold lower.
On to `COc1cc2c(cc1OCCCN1CCCC1)[nH]c1ccncc12` [Compound 6, 1-[3-({8-methoxy-5H-pyrido[4,3-b]indol-7-yl}oxy)propyl]pyrrolidine], for which the IC50 stood at 0.0032 µM.
Then `COc1cc2c(cc1OCCCN1CCCC1)[nH]c1cc(C3CC3)ncc12` [Compound 101, 1-[3-({3-cyclopropyl-8-methoxy-5H-pyrido[4,3-b]indol-7-yl}oxy)propyl]pyrrolidine hydrochloride], with 0.12 µM; and `COc1cc2c(cc1OCCCN1CCCC1)[nH]c1ccnc(-c3ccccn3)c12` [Compound 25, 8-methoxy-1-(pyridin-2-yl)-7-(3-(pyrrolidin-1-yl)propoxy)-5H-pyrido[4,3-b]indole], with 0.14 µM.
Then `COc1cc2c(cc1OCCCN1CCCC1)[nH]c1ccnc(N3CC(O)C3)c12` [Compound 18, 1-{8-methoxy-7-[3-(pyrrolidin-1-yl)propoxy]-5H-pyrido[4,3-b]indol-1-yl}azelidin-3-ol], with 0.012 µM; and `COCCOc1nccc2[nH]c3cc(OCCCN4CCCC4)c(OC)cc3c12` [Compound 96, 1-(3-{[8-methoxy-1-(2-methoxyethoxy)-5H-pyrido[4,3-b]indol-7-yl]oxy}propyl)pyrrolidine trifluoroacetate], with 3.3 µM; and `COc1cc2c(cc1OCCCN1CC[C@H](F)C1)[nH]c1ccnc(C3CC3)c12` [Compound 63, (3S)-1-[3-({1-cyclopropyl-8-methoxy-5H-pyrido[4,3-b]indol-7-yl}oxy)propyl]-3-fluoropyrrolidine hydrochloride], with 0.13 µM.
Then `COc1cc2c(cc1OCCCN1CCCC1)[nH]c1cccnc12` [Compound 27, 1-[3-({8-methoxy-5H-pyrido[3,2-b]indol-7-yl}oxy)propyl]pyrrolidine hydrochloride], with 0.15 µM; and `COc1cc2c(cc1OCCCN1CCCC1)[nH]c1cncnc12` [Compound 44, 1-[3-({8-methoxy-5H-pyrimido[5,4-b]indol-7-yl}oxy)propyl]pyrrolidine], with 0.17 µM.
Consider `COc1cc2c(cc1OCCCN1CCCC1)[nH]c1cnccc12` [Compound 28, 1-[3-({6-methoxy-9H-pyrido[3,4-b]indol-7-yl}oxy)propyl]pyrrolidine hydrochloride], for which half-maximal inhibition (IC50) was put at 0.06 µM.
The same measure for `COc1cc2c(cc1OCCCN(C)C)[nH]c1ccnc(C#CC(C)(C)O)c12` [Compound 48, 4-{7-[3-(dimethylamino)propoxy]-8-methoxy-5H-pyrido[4,3-b]indol-1-yl}-2-methylbut-3-yn-2-ol hydrochloride]: 1.3 µM; for `COc1cc2c(cc1OCCCN1CCCC1)[nH]c1cc(CO)ncc12` [Compound 79, {8-methoxy-7-[3-(pyrrolidin-1-yl)propoxy]-5H-pyrido[4,3-b]indol-3-yl}methanol trifluoroacetate]: 0.14 µM.
`COc1cc2c(cc1OCCCN1CCCC1)[nH]c1ccnc(N3CCOCC3)c12` [Compound 17, 4-{8-methoxy-7-[3-(pyrrolidin-1-yl)propoxy]-5H-pyrido[4,3-b]indol-1-yl}morpholine] displayed an IC50 of 0.37 µM.
`COc1cc2c(cc1OCCCN1CCCC1C)[nH]c1ccnc(C3CC3)c12` (centres unmarked) [Compound 60, 1-[3-({1-cyclopropyl-8-methoxy-5H-pyrido[4,3-b]indol-7-yl}oxy)propyl]-2-methylpyrrolidine hydrochloride] showed a half-inhibitory concentration (IC50) of 0.051 µM.
For the compound `COc1cc2c(cc1OCCCN1CCCC1)[nH]c1ccnc(-c3ccncc3)c12` [Compound 23, 8-methoxy-1-(pyridin-4-yl)-7-(3-(pyrrolidin-1-yl)propoxy)-5H-pyrido[4,3-b]indole], the IC50 is 0.1 µM.
